Results reported in patent US8232315B2, “Methods for treating drug addiction and improving addiction-related behavior” (SK Biopharmaceuticals Co., Ltd., priority 2009, dated 2012).
Entries after “also recorded” stand apart in the source; their conditions may differ. Like-named read-outs stand apart in the source and are kept apart here.

How the values were obtained:
[1] = test system: monkeys trained to discriminate cocaine (0.40 mg/kg) from saline; assay: Cocaine drug discrimination (substitution protocol) in rhesus monkeys; type: in vivo, rhesus monkeys (Macaca mulatta); details: for ED50: Primates, in Macaca mulatta, cumulative dosing, read-out: ED50 in producing cocaine-appropriate responding; for Effect on response rates: substituting doses of test compound / training dose of cocaine, relative to saline control
Text: Subjects: The subjects were four male rhesus monkeys (Macaca mulatta) each weighing 7.0-8.0 kg. Each monkey was maintained on a diet of 7-12 monkey biscuits (Purina Monkey Chow Jumbo #5037) and one piece of fresh fruit per day. During the week, all food was delivered after the experimental session, whereas on weekends, food was delivered between 9 a.m. and noon. Water was freely available at all times. The room in which the monkeys were housed was maintained on a 12-hr light/dark cycle, with lights on from 7 a.m. to 7 p.m.
Apparatus: Each monkey was housed individually in a well-ventilated, stainless steel chamber (56×71×69 cm). The home cages of all monkeys were modified to include an operant panel (28×28 cm) mounted on the front wall. Three square translucent response keys (6.4×6.4 cm) were arranged 2.54 cm apart in a horizontal row 3.2 cm from the top of the operant panel. Each key could be transilluminated by red or green stimulus lights (Superbright LED'S). In addition, the operant panel supported an externally mounted pellet dispenser (Gerbrands, Model G53 10, Arlington, Mass.) that delivered 1 gm fruit-flavored food pellets (Precision Primate Pellets Formula L/I Banana Flavor, P. J. Noyes Co., Lancaster, N.H.) to a food receptacle mounted on the cage beneath the operant response panel. Operation of the operant panels and data collection were accomplished with IBM-compatible computers and interface systems (MedAssociates; St. Albans, Vt.) located in a separate room.
Discrimination Training: Discrimination training was conducted 5 days per week during daily sessions composed of multiple cycles. Each cycle consisted of a 15-min time-out period followed by a 5-min response period. During the time-out, all stimulus lights were off, and responding had no scheduled consequences. During the response period, the right and left response keys were transilluminated red or green, and monkeys could earn up to 10 food pellets by responding under a FR 30 schedule of food presentation. For all four monkeys in this study, the left key was illuminated green, and the right key was illuminated red. The center key was not illuminated at any time, and responding on the center key had no scheduled consequences. If all available food pellets were delivered before the end of the 5-min response period, the stimulus lights transilluminating the response keys were turned off, and responding had no scheduled consequences for the remainder of the 5-min period.
On training days, monkeys were given an i.m. injection of either saline or 0.40 mg/kg cocaine 5-min after the beginning of each time-out period (i.e., 10 min before the response period). Following the administration of saline, responding on only the green key (the saline-appropriate key) produced food, whereas following administration of 0.40 mg/kg cocaine, only responding on the red key (the drug-appropriate key) produced food. Responses on the inappropriate key reset the FR requirement on the appropriate key. Sessions consisted of 1 to 5 cycles, and if the training dose of cocaine was administered, it was administered only during the last cycle. Thus, training days consisted of 0 to 5 saline cycles followed by 0 to 1 drug cycles.
During each response period, 3 dependent variables were determined using the following equations.
1) Percent injection-appropriate responding prior to delivery of the first reinforcer.
2) Percent injection-appropriate responding for the entire response period.
Monkeys were considered to have acquired cocaine discrimination when the following three criteria were met for 7 of 8 consecutive training sessions: 1) the percent injection-appropriate responding prior to delivery of the first reinforcer was greater than or equal to 80% for all cycles; 2) the percent injection-appropriate responding for the entire cycle was greater than or equal to 90% for all cycles; 3) response rates during saline training cycles were greater than 0.5 responses per second. […]

[2] = test system: rats trained to discriminate cocaine (10 mg/kg) from saline; assay: Substitution for the discriminative stimulus effects of cocaine in rats (two-lever drug discrimination); type: in vivo, Sprague-Dawley rats; details: for ED50: Rattus norvegicus, linear regression against log10 doses from 10 to 100 mg/kg
Method: Test compound was tested for its ability to substitute for the discriminative stimulus effects of cocaine (10 mg/kg) in rats.
Six male Sprague-Dawley rats were trained to discriminate cocaine (10 mg/kg) from saline using a two-lever choice methodology. Food was available as a reinforcer under a fixed ratio 10 schedule when responding occurred on the injection appropriate lever. All tests occurred in standard, commercially available chambers (Coulbourn Instruments), using 45 mg food pellets (Bioserve) as reinforcers.
Training sessions occurred in a double alternating fashion, and tests were conducted between pairs of identical training sessions (i.e., between either two saline or two cocaine training sessions). Tests occurred only if, in the two preceding training sessions, subjects met the criteria of emitting 85% of responses on the injection correct lever for both the first reinforcer (first fixed ratio) and the total session. Test sessions lasted for twenty minutes, or until twenty reinforcers had been obtained. Doses of the test compound for which fewer, than three rats completed the first fixed ratio were not considered in the characterization of discriminative stimulus effects.
Intraperitoneal injections (1 ml/kg) of test compound, or its vehicle (0.9% saline), occurred 60 minutes prior to the start of the test session. A starting dose for test compound of 2.5 mg/kg was determined based upon data supplied by the project officer, and a dose range of 2.5 to 100 mg/kg was examined.

SMILES: NC(=O)OC[C@H](N)Cc1ccccc1 [test compound, O-carbamoyl-(D)-phenylalaminol]
- ED50 ([1]; monkey 92N012): 1.8 mg/kg
- ED50 ([1]; monkey 153F): 5.6 mg/kg
- ED50 ([1]; monkey 186F): 13.4 mg/kg
- ED50 ([1]; monkey L958): 5.6 mg/kg
- Overt behavioral effects ([1]; across the dose range tested (0.1-18 mg/kg)): did not produce noticeable overt behavioral effects
- Substitution for the cocaine training stimulus ([1]; all four monkeys, 0.1-18 mg/kg): dose-dependent and complete substitution; also recorded: substituted completely
- Effect on response rates ([1]; monkey 92N012): increased response rates
- Effect on response rates ([1]; monkey 153F): decreased response rates
- Effect on response rates ([1]; monkey 186F): had no effect on response rates
- Potency relative to cocaine (fold less potent) ([1]; rhesus monkeys, cocaine-like behavioral effects): approximately 20 fold
- ED50 ([2]; i.p. 60 min before session, read-out: ED50, substitution for the discriminative stimulus effects of 10 mg/kg cocaine, total session): 37.4 mg/kg
- ED50 ([2]; ip, read-out: ED50, substitution for cocaine, first reinforcer): 37.5 mg/kg
- Substitution for the discriminative stimulus effects of 10 mg/kg cocaine ([2]; dose range 2.5 to 100 mg/kg i.p.): substituted fully; also recorded: fully substituted
- Response rate, % of vehicle control, first reinforcer ([2]; following 100 mg/kg i.p.): 37%
- Response rate, % of vehicle control, total session ([2]; following 100 mg/kg i.p.): 41%
